Key:
Apis mellifera = conditions: bee; comparison value, no test described; cited from earlier work
Varroa jacobsoni = test: Treatment of Varroa jacobsoni-infected bee families in hives, number of perished mites (Example 38); format: in vivo, Varroa jacobsoni mites on Apis mellifera
Experimental: Three families of bees, being present in good condition on nine frames, were infected with `Varroa jacobsoni` to a medium extent, then treated three times, on every third day with the cell-free fermentation broth prepared as described in Example 8 a). Each time, 60 ml of the cell-free fermentation broth prepared as described in Example 8 a) was evenly sprayed by using an airpump spraying device on the honeycomb surfaces and the bees swarming on such surfaces. In addition, each bee family was exposed to the effect of a smoking strip containing 30 mg of amitrase active agent (ANTIVAR for veterinary use) on the third day after the last treatment.
Three other bee families used as control were treated only with ANTIVAR (30 mg of amitrase) in the periods of treatments by the fermentation broth prepared in Example 8 a). Then the number of perished mites and bees inside the hive was counted and registered. Also, the general condition and behavior of the families and the queen-bee were observed.
A tray made of aluminum and provided with a 5 mm high folded rim was placed on the floor-plate of the bee-hives. In case of necessity, the tray could be removed or replaced through an appropriately shaped opening made in the plane of the floor-plate, without the need to open the bee-hive itself.
Under the term of "inhabited strip of the honeycomb" we mean the area stretching between two adjacent sections of the honeycomb was meant where at least 70 to 80% of opposite surfaces of the honeycomb were covered by bees.
By each treatment, 60 ml of cell-free undiluted fermentation broth, prepared as described in Example 8a) and kept at room temperature, were sprayed by using a manually operated air-jet device onto the entire surface of nine frames holding three families of bees (i.e. onto a surface of 27 216 cm^2 per family). The bees covered the honeycomb surface quite evenly during the spraying. The smoking strip containing the amitrase active agent (ANTIVAR) used as control was bent in a "V"-form and placed onto the aluminum tray, then lit and pushed inside the bee-hive. The exit opening was kept closed for one hour.
a) The number of perished mites was registered in the 24th, 48th and 72nd hour after treatments.
Number of perished Varroa jacobsoni mites each per bee family after treatments carried out every 3rd day, 3 times altogether by using the cell-free fermentation broth prepared as described in Example 8a) followed by a treatment with amitrase
Number of perished "Varroa jacobsoni" mites each per bee family after treatment in every third day, 4 times altogether by using 30 mg of amitrase per treatment (control)

For `Cc1ccc(N=CN(C)C=Nc2ccc(C)cc2C)c(C)c1` [amitrase], the LD50 (Apis mellifera) is given as 12 microgram/bee, the effect (Varroa jacobsoni; amitrase-treating, as shown in example 38) is given as under 100% and the “Number of perished mites” value (Varroa jacobsoni; control group, 4th amitrase treatment (30 mg), 24 h after treatment, bee family No. 1) is given as 57. For the same compound, the “Number of perished mites” value (Varroa jacobsoni; control group, 4th amitrase treatment (30 mg), 24 h after treatment, bee family No. 2) was 55, the “Number of perished mites” value (Varroa jacobsoni; control group, 4th amitrase treatment (30 mg), 24 h after treatment, bee family No. 3) was 32 and the “Number of perished mites” value (Varroa jacobsoni; control group, 4th amitrase treatment (30 mg), 48 h after treatment, bee family No. 1) was 4. The “Number of perished mites” value (Varroa jacobsoni; control group, 4th amitrase treatment (30 mg), 48 h after treatment, bee family No. 2) was 0, the “Number of perished mites” value (Varroa jacobsoni; control group, 4th amitrase treatment (30 mg), 48 h after treatment, bee family No. 3) was 4 and the “Number of perished mites” value (Varroa jacobsoni; control group, 4th amitrase treatment (30 mg), 72 h after treatment, bee family No. 1) was 1. For the same compound, the “Number of perished mites” value (Varroa jacobsoni; control group, 4th amitrase treatment (30 mg), 72 h after treatment, bee family No. 2) was 0, the “Number of perished mites” value (Varroa jacobsoni; control group, 4th amitrase treatment (30 mg), 72 h after treatment, bee family No. 3) was 1 and the “Number of perished mites, Total” value (Varroa jacobsoni; control group, 4th amitrase treatment (30 mg), total, bee family No. 1) was 62. For the same compound, the “Number of perished mites, Total” value (Varroa jacobsoni; control group, 4th amitrase treatment (30 mg), total, bee family No. 2) was 55, the “Number of perished mites, Total” value (Varroa jacobsoni; control group, 4th amitrase treatment (30 mg), total, bee family No. 3) was 37 and the “Number of perished mites” value (Varroa jacobsoni; treatment 1, 24 h after treatment, bee family No. 1) was 164. The “Number of perished mites” value (Varroa jacobsoni; treatment 1, 24 h after treatment, bee family No. 2) was 241, the “Number of perished mites” value (Varroa jacobsoni; treatment 1, 24 h after treatment, bee family No. 3) was 190 and the “Number of perished mites” value (Varroa jacobsoni; treatment 1, 48 h after treatment, bee family No. 1) was 3. For the same compound, the “Number of perished mites” value (Varroa jacobsoni; treatment 1, 48 h after treatment, bee family No. 2) was 12, the “Number of perished mites” value (Varroa jacobsoni; treatment 1, 48 h after treatment, bee family No. 3) was 3 and the “Number of perished mites” value (Varroa jacobsoni; treatment 1, 72 h after treatment, bee family No. 1) was 0. The “Number of perished mites” value (Varroa jacobsoni; treatment 1, 72 h after treatment, bee family No. 2) was 1, the “Number of perished mites” value (Varroa jacobsoni; treatment 1, 72 h after treatment, bee family No. 3) was 0 and the “Number of perished mites, Total” value (Varroa jacobsoni; treatment 1, total, bee family No. 1) was 167. For the same compound, the “Number of perished mites, Total” value (Varroa jacobsoni; treatment 1, total, bee family No. 2) was 254, the “Number of perished mites, Total” value (Varroa jacobsoni; treatment 1, total, bee family No. 3) was 193 and the “Number of perished mites” value (Varroa jacobsoni; treatment 2, 24 h after treatment, bee family No. 1) was 68. The “Number of perished mites” value (Varroa jacobsoni; treatment 2, 24 h after treatment, bee family No. 2) was 87, the “Number of perished mites” value (Varroa jacobsoni; treatment 2, 24 h after treatment, bee family No. 3) was 37 and the “Number of perished mites” value (Varroa jacobsoni; treatment 2, 48 h after treatment, bee family No. 1) was 0. For the same compound, the “Number of perished mites” value (Varroa jacobsoni; treatment 2, 48 h after treatment, bee family No. 2) was 3, the “Number of perished mites” value (Varroa jacobsoni; treatment 2, 48 h after treatment, bee family No. 3) was 1 and the “Number of perished mites” value (Varroa jacobsoni; treatment 2, 72 h after treatment, bee family No. 1) was 0. For the same compound, the “Number of perished mites” value (Varroa jacobsoni; treatment 2, 72 h after treatment, bee family No. 2) was 1, the “Number of perished mites” value (Varroa jacobsoni; treatment 2, 72 h after treatment, bee family No. 3) was 0 and the “Number of perished mites, Total” value (Varroa jacobsoni; treatment 2, total, bee family No. 1) was 68. For the same compound, the “Number of perished mites, Total” value (Varroa jacobsoni; treatment 2, total, bee family No. 2) was 91, the “Number of perished mites, Total” value (Varroa jacobsoni; treatment 2, total, bee family No. 3) was 38 and the “Number of perished mites” value (Varroa jacobsoni; treatment 3, 24 h after treatment, bee family No. 1) was 21. For the same compound, the “Number of perished mites” value (Varroa jacobsoni; treatment 3, 24 h after treatment, bee family No. 2) was 35, the “Number of perished mites” value (Varroa jacobsoni; treatment 3, 24 h after treatment, bee family No. 3) was 24 and the “Number of perished mites” value (Varroa jacobsoni; treatment 3, 48 h after treatment, bee family No. 1) was 0. For the same compound, the “Number of perished mites” value (Varroa jacobsoni; treatment 3, 48 h after treatment, bee family No. 2) was 2, the “Number of perished mites” value (Varroa jacobsoni; treatment 3, 48 h after treatment, bee family No. 3) was 1 and the “Number of perished mites” value (Varroa jacobsoni; treatment 3, 72 h after treatment, bee family No. 1) was 0. The “Number of perished mites” value (Varroa jacobsoni; treatment 3, 72 h after treatment, bee family No. 2) was 0, the “Number of perished mites” value (Varroa jacobsoni; treatment 3, 72 h after treatment, bee family No. 3) was 2 and the “Number of perished mites, Total” value (Varroa jacobsoni; treatment 3, total, bee family No. 1) was 21. For the same compound, the “Number of perished mites, Total” value (Varroa jacobsoni; treatment 3, total, bee family No. 2) was 37, the “Number of perished mites, Total” value (Varroa jacobsoni; treatment 3, total, bee family No. 3) was 27 and the “Number of perished mites” value (Varroa jacobsoni; treatment 4: amitrase (30 mg) after 3 treatments with Example 8a) broth, 24 h, bee family No. 1) was 225. For the same compound, the “Number of perished mites” value (Varroa jacobsoni; treatment 4: amitrase (30 mg) after 3 treatments with Example 8a) broth, 24 h, bee family No. 2) was 134, the “Number of perished mites” value (Varroa jacobsoni; treatment 4: amitrase (30 mg) after 3 treatments with Example 8a) broth, 24 h, bee family No. 3) was 94 and the “Number of perished mites” value (Varroa jacobsoni; treatment 4: amitrase (30 mg) after 3 treatments with Example 8a) broth, 48 h, bee family No. 1) was 24. For the same compound, the “Number of perished mites” value (Varroa jacobsoni; treatment 4: amitrase (30 mg) after 3 treatments with Example 8a) broth, 48 h, bee family No. 2) was 4, the “Number of perished mites” value (Varroa jacobsoni; treatment 4: amitrase (30 mg) after 3 treatments with Example 8a) broth, 48 h, bee family No. 3) was 11 and the “Number of perished mites” value (Varroa jacobsoni; treatment 4: amitrase (30 mg) after 3 treatments with Example 8a) broth, 72 h, bee family No. 1) was 0. For the same compound, the “Number of perished mites” value (Varroa jacobsoni; treatment 4: amitrase (30 mg) after 3 treatments with Example 8a) broth, 72 h, bee family No. 2) was 1, the “Number of perished mites” value (Varroa jacobsoni; treatment 4: amitrase (30 mg) after 3 treatments with Example 8a) broth, 72 h, bee family No. 3) was 0 and the “Number of perished mites, Total” value (Varroa jacobsoni; treatment 4: amitrase (30 mg) after 3 treatments with Example 8a) broth, total, bee family No. 1) was 249. For the same compound, the “Number of perished mites, Total” value (Varroa jacobsoni; treatment 4: amitrase (30 mg) after 3 treatments with Example 8a) broth, total, bee family No. 2) was 139 and the “Number of perished mites, Total” value (Varroa jacobsoni; treatment 4: amitrase (30 mg) after 3 treatments with Example 8a) broth, total, bee family No. 3) was 105.
